US11492385B2, “Long-acting co-agonists of the glucagon and GLP-1 receptors” (Merck Sharp & Dohme Corp., priority 2015, dated 2022)
Starred links: 1 amine or outer side, 2 acyl side, 3 side chain; linkers in the order of their positions; H or OH if unused. Non-standard residues stand in square brackets, D forms with d. Residues, ends and D or L forms follow the SMILES beside them. Groups on a side chain read outwards from the residue. *: point of attachment. Phe(4-CH2NH2) = NCc1ccc(C[C@H](N)C(=O)O)cc1; C16 diacid = O=C(O)CCCCCCCCCCCCCCC(=O)*; γGlu = O=C(O)[C@H](CCC(=O)[*:2])N[*:1]; Met(O2) = CS(=O)(=O)CC[C@H](N)C(=O)O; AEEA = NCCOCCOCC(=O)O; Aib = CC(C)(N)C(=O)O

Experiments:
human GCGR = biological target: T1, human GCGR (Homo sapiens, UniProt P47871); assay: cAMP activity assay, cells expressing human GCGR; format: cell-based; settings: for EC50: cAMP production, cells expressing human GCGR, assay buffer with or without 20% human serum (not stated which), read-out: GCGR EC50 human; for hGCGR/hGLP1R (hTone): ratio of human GCGR EC50 to human GLP1R EC50
T1 construct: expressed in transfected cells; kept under Blasticidin and Hygromycin selection
Method: (§1) Activity of the peptides at the Glucagon receptor (GCGR) and GLP-1 receptor (GLP1R) was measured in a cAMP activity assay. Peptides were dissolved in 100% DMSO and serially diluted to generate 10 point titrations. The peptide solutions were then transferred into 384-well assay plates (150 nL/well). […] Production of cAMP was determined using […] kits (DiscoverX) following manufacturer protocol. The plates were incubated for overnight at room temperature in the dark. Luminescence was measured using an EnVision Multilabel plate reader (Perkin Elmer). Native GLP-1 and Glucagon (Bachem) are used as control peptides. EC50 values were calculated using uses a 4 parameter logistic fit based on the Levenberg-Marquardt algorithm.

human GLP1R = biological target: T2, human GLP1R (Homo sapiens, UniProt P43220); assay: cAMP activity assay, cells expressing human GLP1R; format: cell-based; settings: cAMP production, assay buffer with or without 20% human serum (not stated which)
T2 construct: expressed in transfected cells; kept under Blasticidin and Hygromycin selection
Method: as §1

T2 sequence (P43220 24-463): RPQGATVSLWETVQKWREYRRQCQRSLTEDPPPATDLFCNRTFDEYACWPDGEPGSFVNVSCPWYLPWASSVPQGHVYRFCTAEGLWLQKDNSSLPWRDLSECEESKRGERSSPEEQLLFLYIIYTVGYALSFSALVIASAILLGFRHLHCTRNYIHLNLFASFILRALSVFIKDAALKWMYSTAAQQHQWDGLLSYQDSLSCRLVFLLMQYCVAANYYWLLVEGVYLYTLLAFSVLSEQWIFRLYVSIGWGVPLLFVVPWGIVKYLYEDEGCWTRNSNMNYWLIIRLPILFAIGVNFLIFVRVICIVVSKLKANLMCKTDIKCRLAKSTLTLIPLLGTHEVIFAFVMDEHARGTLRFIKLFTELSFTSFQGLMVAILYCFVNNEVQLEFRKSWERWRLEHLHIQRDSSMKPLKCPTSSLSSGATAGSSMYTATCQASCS
T1 sequence (P47871 26-477): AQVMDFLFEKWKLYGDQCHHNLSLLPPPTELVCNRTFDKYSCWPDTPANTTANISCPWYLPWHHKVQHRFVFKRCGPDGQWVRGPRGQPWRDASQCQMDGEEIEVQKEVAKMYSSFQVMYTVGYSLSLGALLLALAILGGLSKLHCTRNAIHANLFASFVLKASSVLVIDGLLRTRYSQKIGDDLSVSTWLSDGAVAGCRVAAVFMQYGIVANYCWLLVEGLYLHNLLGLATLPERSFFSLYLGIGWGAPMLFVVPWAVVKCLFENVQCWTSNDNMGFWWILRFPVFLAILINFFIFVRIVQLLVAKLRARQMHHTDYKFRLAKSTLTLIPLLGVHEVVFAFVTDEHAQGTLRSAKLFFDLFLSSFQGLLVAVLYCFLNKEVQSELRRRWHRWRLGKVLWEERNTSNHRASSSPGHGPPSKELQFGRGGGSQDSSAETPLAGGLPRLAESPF

Row | Structure (SMILES) | EC50 (human GCGR) | hGCGR/hGLP1R (hTone) (human GCGR) | EC50 (human GLP1R)
1 | CC(C)C[C@H](NC(=O)[C@H](Cc1ccc(O)cc1)NC(=O)[C@H](CCCCN)NC(=O)[C@H](CO)NC(=O)[C@H](Cc1ccc(CNC(=O)COCCOCCNC(=O)COCCOCCNC(=O)CC[C@H](NC(=O)CCCCCCCCCCCCCCC(=O)O)C(=O)O)cc1)NC(=O)[C@H](CC(=O)O)NC(=O)[C@H](CO)NC(=O)[C@@H](NC(=O)[C@H](Cc1ccccc1)NC(=O)[C@@H](NC(=O)CNC(=O)[C@H](CCC(N)=O)NC(=O)[C@@H](CO)NC(=O)[C@@H](N)Cc1c[nH]cn1)[C@@H](C)O)[C@@H](C)O)C(=O)N[C@@H](CC(=O)O)C(=O)N[C@@H](CCC(=O)O)C(=O)N[C@@H](CCCNC(=N)N)C(=O)N[C@@H](C)C(=O)N[C@@H](C)C(=O)N[C@@H](CCC(N)=O)C(=O)N[C@@H](CC(=O)O)C(=O)N[C@@H](Cc1ccccc1)C(=O)N[C@H](C(=O)N[C@@H](CCC(N)=O)C(=O)N[C@@H](Cc1c[nH]c2ccccc12)C(=O)N[C@@H](CC(C)C)C(=O)N[C@@H](CC(C)C)C(=O)N[C@@H](CCCCN)C(=O)N[C@H](C(N)=O)[C@@H](C)O)C(C)C [compound 10] (H-H[dS]QGTFTSD[Phe(4-CH2NH2)]([AEEA-AEEA-γGlu-C16 diacid])SKYLDERAAQDFVQWLLKT-NH2; N-terminus assumed) | 0.12 nM | 0.26 | 0.46 nM
2 | CC(C)C[C@H](NC(=O)[C@H](Cc1ccc(O)cc1)NC(=O)[C@H](CCCCN)NC(=O)[C@H](CO)NC(=O)[C@H](Cc1ccc(CNC(=O)COCCOCCNC(=O)COCCOCCNC(=O)CC[C@H](NC(=O)CCCCCCCCCCCCCCC(=O)O)C(=O)O)cc1)NC(=O)[C@H](CC(=O)O)NC(=O)[C@H](CO)NC(=O)[C@@H](NC(=O)[C@H](Cc1ccccc1)NC(=O)[C@@H](NC(=O)CNC(=O)[C@H](CCC(N)=O)NC(=O)C(C)(C)NC(=O)[C@@H](N)Cc1c[nH]cn1)[C@@H](C)O)[C@@H](C)O)C(=O)N[C@@H](CC(=O)O)C(=O)N[C@@H](C)C(=O)N[C@@H](CCCNC(=N)N)C(=O)N[C@@H](C)C(=O)N[C@@H](C)C(=O)N[C@@H](CCC(N)=O)C(=O)N[C@@H](CC(=O)O)C(=O)N[C@@H](Cc1ccccc1)C(=O)N[C@H](C(=O)N[C@@H](CCC(N)=O)C(=O)N[C@@H](Cc1c[nH]c2ccccc12)C(=O)N[C@@H](CC(C)C)C(=O)N[C@@H](CCS(C)(=O)=O)C(=O)N[C@@H](CC(=O)O)C(=O)N[C@H](C(N)=O)[C@@H](C)O)C(C)C [compound 12] (H-H[Aib]QGTFTSD[Phe(4-CH2NH2)]([AEEA-AEEA-γGlu-C16 diacid])SKYLDARAAQDFVQWL[Met(O2)]DT-NH2; N-terminus assumed) | 0.14 nM | 1.89 | 0.07 nM
3 | CC(C)C[C@H](NC(=O)[C@H](Cc1ccc(O)cc1)NC(=O)[C@H](CCCCN)NC(=O)[C@H](CO)NC(=O)[C@H](Cc1ccc(O)cc1)NC(=O)[C@H](CC(=O)O)NC(=O)[C@H](CO)NC(=O)[C@@H](NC(=O)[C@H](Cc1ccccc1)NC(=O)[C@@H](NC(=O)CNC(=O)[C@H](CCC(N)=O)NC(=O)[C@@H](CO)NC(=O)[C@@H](N)Cc1c[nH]cn1)[C@@H](C)O)[C@@H](C)O)C(=O)N[C@@H](CC(=O)O)C(=O)N[C@@H](C)C(=O)N[C@@H](CCCNC(=N)N)C(=O)N[C@@H](C)C(=O)N[C@@H](C)C(=O)N[C@@H](CCCCNC(=O)COCCOCCNC(=O)COCCOCCNC(=O)CC[C@H](NC(=O)CCCCCCCCCCCCCCC(=O)O)C(=O)O)C(=O)N[C@@H](CC(=O)O)C(=O)N[C@@H](Cc1ccccc1)C(=O)N[C@H](C(=O)N[C@@H](CCC(N)=O)C(=O)N[C@@H](Cc1c[nH]c2ccccc12)C(=O)N[C@@H](CC(C)C)C(=O)N[C@@H](CCS(C)(=O)=O)C(=O)N[C@@H](CC(=O)O)C(=O)N[C@H](C(N)=O)[C@@H](C)O)C(C)C [compound 14] (H-H[dS]QGTFTSDYSKYLDARAAK([AEEA-AEEA-γGlu-C16 diacid])DFVQWL[Met(O2)]DT-NH2) | 0.04 nM | 0.03 | 1.13 nM
4 | CC(C)C[C@H](NC(=O)[C@H](Cc1ccc(O)cc1)NC(=O)[C@H](CCCCN)NC(=O)[C@H](CO)NC(=O)[C@H](Cc1ccc(O)cc1)NC(=O)[C@H](CC(=O)O)NC(=O)[C@H](CO)NC(=O)[C@@H](NC(=O)[C@H](Cc1ccccc1)NC(=O)[C@@H](NC(=O)CNC(=O)[C@H](CCC(N)=O)NC(=O)C(C)(C)NC(=O)[C@@H](N)Cc1c[nH]cn1)[C@@H](C)O)[C@@H](C)O)C(=O)N[C@@H](CC(=O)O)C(=O)N[C@@H](C)C(=O)N[C@@H](CCCNC(=N)N)C(=O)N[C@@H](C)C(=O)N[C@@H](C)C(=O)N[C@@H](CCCCNC(=O)COCCOCCNC(=O)COCCOCCNC(=O)CC[C@H](NC(=O)CCCCCCCCCCCCCCC(=O)O)C(=O)O)C(=O)N[C@@H](CC(=O)O)C(=O)N[C@@H](Cc1ccccc1)C(=O)N[C@H](C(=O)N[C@@H](CCC(N)=O)C(=O)N[C@@H](Cc1c[nH]c2ccccc12)C(=O)N[C@@H](CC(C)C)C(=O)N[C@@H](CC(C)C)C(=O)N[C@@H](CC(=O)O)C(=O)N[C@H](C(N)=O)[C@@H](C)O)C(C)C [compound 17] (H-H[Aib]QGTFTSDYSKYLDARAAK([AEEA-AEEA-γGlu-C16 diacid])DFVQWLLDT-NH2) | 0.14 nM | 1.44 | 0.1 nM
5 | CC(C)C[C@H](NC(=O)[C@H](Cc1ccc(O)cc1)NC(=O)[C@H](CCCCN)NC(=O)[C@H](CO)NC(=O)[C@H](Cc1ccc(O)cc1)NC(=O)[C@H](CC(=O)O)NC(=O)[C@H](CO)NC(=O)[C@@H](NC(=O)[C@H](Cc1ccccc1)NC(=O)[C@@H](NC(=O)CNC(=O)[C@H](CCC(N)=O)NC(=O)C(C)(C)NC(=O)[C@@H](N)Cc1c[nH]cn1)[C@@H](C)O)[C@@H](C)O)C(=O)N[C@@H](CC(=O)O)C(=O)N[C@@H](C)C(=O)N[C@@H](CCCNC(=N)N)C(=O)N[C@@H](C)C(=O)N[C@@H](C)C(=O)N[C@@H](CCC(N)=O)C(=O)N[C@@H](CCCCNC(=O)COCCOCCNC(=O)COCCOCCNC(=O)CC[C@H](NC(=O)CCCCCCCCCCCCCCC(=O)O)C(=O)O)C(=O)N[C@@H](Cc1ccccc1)C(=O)N[C@H](C(=O)N[C@@H](CCC(N)=O)C(=O)N[C@@H](Cc1c[nH]c2ccccc12)C(=O)N[C@@H](CC(C)C)C(=O)N[C@@H](CC(C)C)C(=O)N[C@@H](CC(=O)O)C(=O)N[C@H](C(N)=O)[C@@H](C)O)C(C)C [compound 18] (H-H[Aib]QGTFTSDYSKYLDARAAQK([AEEA-AEEA-γGlu-C16 diacid])FVQWLLDT-NH2) | 0.07 nM | 2.19 | 0.03 nM

The next compounds have a lower EC50 (human GCGR) than those just listed; values first:

Row | EC50 (human GCGR) | hGCGR/hGLP1R (hTone) (human GCGR) | EC50 (human GLP1R) | Structure (SMILES)
6 | 0.03 nM | 0.09 | 0.31 nM | CC(C)C[C@H](NC(=O)[C@H](Cc1ccc(O)cc1)NC(=O)[C@H](CCCCN)NC(=O)[C@H](CO)NC(=O)[C@H](Cc1ccc(O)cc1)NC(=O)[C@H](CC(=O)O)NC(=O)[C@H](CO)NC(=O)[C@@H](NC(=O)[C@H](Cc1ccccc1)NC(=O)[C@@H](NC(=O)CNC(=O)[C@H](CCC(N)=O)NC(=O)[C@@H](CO)NC(=O)[C@@H](N)Cc1c[nH]cn1)[C@@H](C)O)[C@@H](C)O)C(=O)N[C@@H](CC(=O)O)C(=O)N[C@@H](CCC(=O)O)C(=O)N[C@@H](CCCNC(=N)N)C(=O)N[C@@H](C)C(=O)N[C@@H](C)C(=O)N[C@@H](CCC(N)=O)C(=O)N[C@@H](CCCCNC(=O)COCCOCCNC(=O)COCCOCCNC(=O)CC[C@H](NC(=O)CCCCCCCCCCCCCCC(=O)O)C(=O)O)C(=O)N[C@@H](Cc1ccccc1)C(=O)N[C@H](C(=O)N[C@@H](CCC(N)=O)C(=O)N[C@@H](Cc1c[nH]c2ccccc12)C(=O)N[C@@H](CC(C)C)C(=O)N[C@@H](CCS(C)(=O)=O)C(=O)N[C@@H](CC(=O)O)C(=O)N[C@H](C(N)=O)[C@@H](C)O)C(C)C [compound 16] (H-H[dS]QGTFTSDYSKYLDERAAQK([AEEA-AEEA-γGlu-C16 diacid])FVQWL[Met(O2)]DT-NH2)
7 | 0.01 nM | 0.07 | 0.22 nM | CC(C)C[C@H](NC(=O)[C@H](Cc1ccc(O)cc1)NC(=O)[C@H](CCCCN)NC(=O)[C@H](CO)NC(=O)[C@H](Cc1ccc(O)cc1)NC(=O)[C@H](CC(=O)O)NC(=O)[C@H](CO)NC(=O)[C@@H](NC(=O)[C@H](Cc1ccccc1)NC(=O)[C@@H](NC(=O)CNC(=O)[C@H](CCC(N)=O)NC(=O)[C@@H](CO)NC(=O)[C@@H](N)Cc1c[nH]cn1)[C@@H](C)O)[C@@H](C)O)C(=O)N[C@@H](CC(=O)O)C(=O)N[C@@H](C)C(=O)N[C@@H](CCCNC(=N)N)C(=O)N[C@@H](C)C(=O)N[C@@H](C)C(=O)N[C@@H](CCC(N)=O)C(=O)N[C@@H](CCCCNC(=O)COCCOCCNC(=O)COCCOCCNC(=O)CC[C@H](NC(=O)CCCCCCCCCCCCCCC(=O)O)C(=O)O)C(=O)N[C@@H](Cc1ccccc1)C(=O)N[C@H](C(=O)N[C@@H](CCC(N)=O)C(=O)N[C@@H](Cc1c[nH]c2ccccc12)C(=O)N[C@@H](CC(C)C)C(=O)N[C@@H](CCS(C)(=O)=O)C(=O)N[C@@H](CC(=O)O)C(=O)N[C@H](C(N)=O)[C@@H](C)O)C(C)C [compound 15] (H-H[dS]QGTFTSDYSKYLDARAAQK([AEEA-AEEA-γGlu-C16 diacid])FVQWL[Met(O2)]DT-NH2)
